Reference: patent publication EP4667483A1, “HUMAN TRANSFERRIN RECEPTOR-BINDING PEPTIDE” (JCR Pharmaceuticals Co., Ltd., priority 2023, dated 2024)
Bridge positions count the residues as written; N and C are the ends. Square brackets hold non-standard residues; d marks the D form. Peptide text beside a SMILES is read from it. * marks the point of attachment. NH(1-deoxy-D-glucityl) = OC[C@@H](O)[C@@H](O)[C@H](O)[C@@H](O)CN*; Trp(1-CH2COOH) = N[C@@H](Cc1cn(CC(=O)O)c2ccccc12)C(=O)O; CH2CON(CH2CH2)2NCH2COOH = O=C(O)CN1CCN(C(=O)C*)CC1; Nle(6-morpholino) = N[C@@H](CCCCN1CCOCC1)C(=O)O; Phe(3-COOH) = N[C@@H](Cc1cccc(C(=O)O)c1)C(=O)O; Trp(7-aza) = N[C@@H](Cc1c[nH]c2ncccc12)C(=O)O; NH(CH2CH2O)8Me = COCCOCCOCCOCCOCCOCCOCCOCCN*; NMePhe(3-Cl) = CN[C@@H](Cc1cccc(Cl)c1)C(=O)O; 3Pal(6-NH2) = Nc1ccc(C[C@H](N)C(=O)O)cn1; NMeY = CN[C@@H](Cc1ccc(O)cc1)C(=O)O; 4Pal = N[C@@H](Cc1ccncc1)C(=O)O; PEG4 = NCCOCCOCCOCCOCCC(=O)O

How the values were obtained:
[1] = biological target: T1, human transferrin receptor (hTfR) (Homo sapiens, UniProt P02786); assay: SPR measurement under pH 7.4 conditions (Biacore T200, CM3 chip, hTfR captured by His Tag antibody); assay type: binding; conditions: pH 7.4, single-cycle kinetics; read-out: hTfR SPR pH7.4 KD
T1 sequence (P02786 whole entry): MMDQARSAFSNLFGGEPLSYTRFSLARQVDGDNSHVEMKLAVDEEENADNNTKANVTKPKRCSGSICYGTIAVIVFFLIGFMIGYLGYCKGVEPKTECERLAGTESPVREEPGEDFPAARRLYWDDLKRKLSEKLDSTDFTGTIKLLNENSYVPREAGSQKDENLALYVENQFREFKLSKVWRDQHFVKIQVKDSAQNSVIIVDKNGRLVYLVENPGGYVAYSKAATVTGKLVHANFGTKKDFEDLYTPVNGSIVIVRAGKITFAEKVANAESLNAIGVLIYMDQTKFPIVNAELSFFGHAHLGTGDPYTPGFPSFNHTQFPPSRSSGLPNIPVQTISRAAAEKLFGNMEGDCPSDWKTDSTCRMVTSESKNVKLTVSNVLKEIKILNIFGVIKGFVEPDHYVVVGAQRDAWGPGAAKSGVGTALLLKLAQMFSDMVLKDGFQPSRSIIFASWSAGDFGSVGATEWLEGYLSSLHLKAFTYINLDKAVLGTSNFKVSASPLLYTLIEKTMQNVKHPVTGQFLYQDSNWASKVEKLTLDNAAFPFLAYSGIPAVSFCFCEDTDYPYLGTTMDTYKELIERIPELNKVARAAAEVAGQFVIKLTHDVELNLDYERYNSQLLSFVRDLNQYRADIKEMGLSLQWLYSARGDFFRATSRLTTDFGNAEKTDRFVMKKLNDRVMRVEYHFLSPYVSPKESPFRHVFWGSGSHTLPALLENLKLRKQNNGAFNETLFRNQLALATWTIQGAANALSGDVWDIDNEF

[2] = biological target: T1, human transferrin receptor (hTfR); assay: SPR measurement under pH 6.0 conditions (Biacore T200, NTA chip, immobilized hTfR); assay type: binding; conditions: pH 6.0, single-cycle kinetics; read-out: hTfR SPR pH6.0 KD

SMILES | Kd [1] [nM] | Kd [2] [nM]
CC[C@H](C)[C@@H]1NC(=O)[C@H](Cc2ccc(OC)cc2)NC(=O)[C@H](Cc2ccc(N)nc2)NC(=O)[C@H](CC(N)=O)NC(=O)[C@H](Cc2c[nH]c3ncccc23)NC(=O)[C@H](C(C)C)NC(=O)[C@H](Cc2cccc(Cl)c2)N(C)C(=O)[C@H](C(C)C)NC(=O)[C@H](C)NC(=O)CSC[C@@H](C(=O)NCCOCCOCCOCCOCCC(N)=O)NC(=O)[C@H](Cc2ccc(O)cc2)N(C)C(=O)[C@H](Cc2ccncc2)NC(=O)[C@H](CCCCN2CCOCC2)NC(=O)[C@H](CCC(=O)NC[C@H](O)[C@@H](O)[C@H](O)[C@H](O)CO)NC(=O)[C@H]([C@@H](C)CC)NC1=O [compound 20] ({CH2CO}-AV[NMePhe(3-Cl)]V[Trp(7-aza)]N[3Pal(6-NH2)]Y(Me)IIE(NH(1-deoxy-D-glucityl))[Nle(6-morpholino)][4Pal][NMeY]C[PEG4]-NH2; thioether N-15) | 4.08 | 41.3
CC[C@H](C)[C@@H]1NC(=O)[C@H](Cc2ccc(OCC(=O)N3CCN(CC(=O)O)CC3)cc2)NC(=O)[C@H](Cc2ccc(O)cc2)NC(=O)[C@H](CC(N)=O)NC(=O)[C@H](Cc2cn(CC(=O)O)c3ccccc23)NC(=O)[C@H](C(C)C)NC(=O)[C@H](Cc2cccc(Cl)c2)N(C)C(=O)[C@H](C(C)C)NC(=O)[C@H](C)NC(=O)CSC[C@@H](C(=O)NCCOCCOCCOCCOCCC(N)=O)NC(=O)[C@H](Cc2ccc(O)cc2)N(C)C(=O)[C@H](Cc2ccncc2)NC(=O)[C@H](CCCCN2CCOCC2)NC(=O)[C@H](CCC(=O)NCCOCCOCCOCCOCCOCCOCCOCCOC)NC(=O)[C@H]([C@@H](C)CC)NC1=O [compound 22] | 4.11 | 205
CC[C@H](C)[C@@H]1NC(=O)[C@H](Cc2ccc(OCC(=O)N3CCN(CC(=O)O)CC3)cc2)NC(=O)[C@H](Cc2ccc(O)cc2)NC(=O)[C@H](CC(N)=O)NC(=O)[C@H](Cc2c[nH]c3ncccc23)NC(=O)[C@H](C(C)C)NC(=O)[C@H](Cc2cccc(Cl)c2)N(C)C(=O)[C@H](C(C)C)NC(=O)[C@H](C)NC(=O)CSC[C@@H](C(=O)NCCOCCOCCOCCOCCC(N)=O)NC(=O)[C@H](Cc2ccc(O)cc2)N(C)C(=O)[C@H](Cc2ccncc2)NC(=O)[C@H](CCCCN2CCOCC2)NC(=O)[C@H](CCC(N)=O)NC(=O)[C@H]([C@@H](C)CC)NC1=O [compound 23] | 3.45 | 33.4
CC[C@H](C)[C@@H]1NC(=O)[C@H](Cc2ccc(OCC(=O)N3CCN(CC(=O)O)CC3)cc2)NC(=O)[C@H](Cc2ccc(O)cc2)NC(=O)[C@H](CC(N)=O)NC(=O)[C@H](Cc2c[nH]c3ncccc23)NC(=O)[C@H](C(C)C)NC(=O)[C@H](Cc2cccc(Cl)c2)N(C)C(=O)[C@H](C(C)C)NC(=O)[C@H](C)NC(=O)CSC[C@@H](C(=O)NCCOCCOCCOCCOCCC(N)=O)NC(=O)[C@H](Cc2ccc(O)cc2)N(C)C(=O)[C@H](Cc2cccc(C(=O)O)c2)NC(=O)[C@H](CCCCN2CCOCC2)NC(=O)[C@H](CCC(N)=O)NC(=O)[C@H]([C@@H](C)CC)NC1=O [compound 24] ({CH2CO}-AV[NMePhe(3-Cl)]V[Trp(7-aza)]NYY(CH2CON(CH2CH2)2NCH2COOH)IIQ[Nle(6-morpholino)][Phe(3-COOH)][NMeY]C[PEG4]-NH2; thioether N-15) | 2.01 | 26.7
CC[C@H](C)[C@@H]1NC(=O)[C@H](Cc2ccc(OCC(=O)NC[C@H](O)[C@@H](O)[C@H](O)[C@H](O)CO)cc2)NC(=O)[C@H](Cc2ccc(O)cc2)NC(=O)[C@H](CC(N)=O)NC(=O)[C@H](Cc2c[nH]c3ncccc23)NC(=O)[C@H](C(C)C)NC(=O)[C@H](Cc2cccc(Cl)c2)N(C)C(=O)[C@H](C(C)C)NC(=O)[C@H](C)NC(=O)CSC[C@@H](C(=O)NCCOCCOCCOCCOCCC(N)=O)NC(=O)[C@H](Cc2ccc(O)cc2)N(C)C(=O)[C@H](Cc2ccncc2)NC(=O)[C@H](CCCCN2CCOCC2)NC(=O)[C@H](CCC(N)=O)NC(=O)[C@H]([C@@H](C)CC)NC1=O [compound 29] | 2.17 | 11.1
CC[C@H](C)[C@@H]1NC(=O)[C@H](Cc2ccc(OCC(=O)N3CCN(CC(=O)O)CC3)cc2)NC(=O)[C@H](Cc2ccc(O)cc2)NC(=O)[C@H](CC(N)=O)NC(=O)[C@H](Cc2cn(CC(=O)O)c3ccccc23)NC(=O)[C@H](C(C)C)NC(=O)[C@H](Cc2cccc(Cl)c2)N(C)C(=O)[C@H](C(C)C)NC(=O)[C@H](C)NC(=O)CSC[C@@H](C(=O)NCCOCCOCCOCCOCCC(N)=O)NC(=O)[C@H](Cc2ccc(O)cc2)N(C)C(=O)[C@H](Cc2ccccc2)NC(=O)[C@H](CCCCN2CCOCC2)NC(=O)[C@H](CCC(=O)NCCOCCOCCOCCOCCOCCOCCOCCOC)NC(=O)[C@H]([C@@H](C)CC)NC1=O [compound 30] ({CH2CO}-AV[NMePhe(3-Cl)]V[Trp(1-CH2COOH)]NYY(CH2CON(CH2CH2)2NCH2COOH)IIE(NH(CH2CH2O)8Me)[Nle(6-morpholino)]F[NMeY]C[PEG4]-NH2; thioether N-15) | 10.2 | 95.6

Continued, values first:

Kd [1] [nM] | Kd [2] [nM] | SMILES
5.37 | 101 | CC[C@H](C)[C@@H]1NC(=O)[C@H](Cc2ccc(OCC(=O)N3CCN(CC(=O)O)CC3)cc2)NC(=O)[C@H](Cc2ccc(O)cc2)NC(=O)[C@H](CC(N)=O)NC(=O)[C@H](Cc2c[nH]c3ncccc23)NC(=O)[C@H](C(C)C)NC(=O)[C@H](Cc2cccc(Cl)c2)N(C)C(=O)[C@H](C(C)C)NC(=O)[C@H](C)NC(=O)CSC[C@@H](C(=O)NCCOCCOCCOCCOCCC(N)=O)NC(=O)[C@H](Cc2ccc(O)cc2)N(C)C(=O)[C@H](Cc2cccc(C(=O)O)c2)NC(=O)[C@H](CCCCN2CCOCC2)NC(=O)[C@H](CCC(=O)NCCOCCOCCOCCOCCOCCOCCOCCOC)NC(=O)[C@H]([C@@H](C)CC)NC1=O [compound 21] ({CH2CO}-AV[NMePhe(3-Cl)]V[Trp(7-aza)]NYY(CH2CON(CH2CH2)2NCH2COOH)IIE(NH(CH2CH2O)8Me)[Nle(6-morpholino)][Phe(3-COOH)][NMeY]C[PEG4]-NH2; thioether N-15)
3.35 | 57.9 | CC[C@H](C)[C@@H]1NC(=O)[C@H](Cc2ccc(OCC(=O)N3CCN(CC(=O)O)CC3)cc2)NC(=O)[C@H](Cc2ccc(O)cc2)NC(=O)[C@H](CC(N)=O)NC(=O)[C@H](Cc2cn(CC(=O)O)c3ccccc23)NC(=O)[C@H](C(C)C)NC(=O)[C@H](Cc2cccc(Cl)c2)N(C)C(=O)[C@H](C(C)C)NC(=O)[C@H](C)NC(=O)CSC[C@@H](C(=O)NCCOCCOCCOCCOCCC(N)=O)NC(=O)[C@H](Cc2ccc(O)cc2)N(C)C(=O)[C@H](Cc2ccncc2)NC(=O)[C@H](CCCCN2CCOCC2)NC(=O)[C@H](CCC(N)=O)NC(=O)[C@H]([C@@H](C)CC)NC1=O [compound 25]
1.73 | 13.4 | CC[C@H](C)[C@@H]1NC(=O)[C@H](Cc2ccc(OCC(=O)NC[C@H](O)[C@@H](O)[C@H](O)[C@H](O)CO)cc2)NC(=O)[C@H](Cc2ccc(O)cc2)NC(=O)[C@H](CC(N)=O)NC(=O)[C@H](Cc2c[nH]c3ncccc23)NC(=O)[C@H](C(C)C)NC(=O)[C@H](Cc2cccc(Cl)c2)N(C)C(=O)[C@H](C(C)C)NC(=O)[C@H](C)NC(=O)CSC[C@@H](C(=O)NCCOCCOCCOCCOCCC(N)=O)NC(=O)[C@H](Cc2ccc(O)cc2)N(C)C(=O)[C@H](Cc2ccncc2)NC(=O)[C@H](CCCNC(=N)N)NC(=O)[C@H](CCC(=O)NC[C@H](O)[C@@H](O)[C@H](O)[C@H](O)CO)NC(=O)[C@H]([C@@H](C)CC)NC1=O [compound 26]
3.03 | 15.4 | CC[C@H](C)[C@@H]1NC(=O)[C@H](Cc2ccc(OCC(=O)NC[C@H](O)[C@@H](O)[C@H](O)[C@H](O)CO)cc2)NC(=O)[C@H](Cc2ccc(O)cc2)NC(=O)[C@H](CC(N)=O)NC(=O)[C@H](Cc2c[nH]c3ncccc23)NC(=O)[C@H](C(C)C)NC(=O)[C@H](Cc2cccc(Cl)c2)N(C)C(=O)[C@H](C(C)C)NC(=O)[C@H](C)NC(=O)CSC[C@@H](C(=O)NCCOCCOCCOCCOCCC(N)=O)NC(=O)[C@H](Cc2ccc(O)cc2)N(C)C(=O)[C@H](Cc2ccncc2)NC(=O)[C@H](CCCCN2CCOCC2)NC(=O)[C@H](CCC(=O)NC[C@H](O)[C@@H](O)[C@H](O)[C@H](O)CO)NC(=O)[C@H]([C@@H](C)CC)NC1=O [compound 27]
2.43 | 17.1 | CC[C@H](C)[C@@H]1NC(=O)[C@H](Cc2ccc(OCC(=O)N3CCN(CC(=O)O)CC3)cc2)NC(=O)[C@H](Cc2ccc(O)cc2)NC(=O)[C@H](CC(N)=O)NC(=O)[C@H](Cc2c[nH]c3ccccc23)NC(=O)[C@H](C(C)C)NC(=O)[C@H](Cc2cccc(Cl)c2)N(C)C(=O)[C@H](C(C)C)NC(=O)[C@H](C)NC(=O)CSC[C@@H](C(=O)NCCOCCOCCOCCOCCC(N)=O)NC(=O)[C@H](Cc2ccc(O)cc2)N(C)C(=O)[C@H](Cc2cccc(C(=O)O)c2)NC(=O)[C@H](CCCCN2CCOCC2)NC(=O)[C@H](CCC(=O)NCCOCCOCCOCCOCCOCCOCCOCCOC)NC(=O)[C@H]([C@@H](C)CC)NC1=O [compound 31] ({CH2CO}-AV[NMePhe(3-Cl)]VWNYY(CH2CON(CH2CH2)2NCH2COOH)IIE(NH(CH2CH2O)8Me)[Nle(6-morpholino)][Phe(3-COOH)][NMeY]C[PEG4]-NH2; thioether N-15)
2.18 | 27 | CC[C@H](C)[C@@H]1NC(=O)[C@H](Cc2ccc(OCC(=O)N3CCN(CC(=O)O)CC3)cc2)NC(=O)[C@H](Cc2ccc(O)cc2)NC(=O)[C@H](CC(N)=O)NC(=O)[C@H](Cc2cn(CC(=O)O)c3ccccc23)NC(=O)[C@H](C(C)C)NC(=O)[C@H](Cc2cccc(Cl)c2)N(C)C(=O)[C@H](C(C)C)NC(=O)[C@H](C)NC(=O)CSC[C@@H](C(=O)NCCOCCOCCOCCOCCC(N)=O)NC(=O)[C@H](Cc2ccc(O)cc2)N(C)C(=O)[C@H](Cc2cccc(C(=O)O)c2)NC(=O)[C@H](CCCCN2CCOCC2)NC(=O)[C@H](CCCCN2CCOCC2)NC(=O)[C@H]([C@@H](C)CC)NC1=O [compound 32] ({CH2CO}-AV[NMePhe(3-Cl)]V[Trp(1-CH2COOH)]NYY(CH2CON(CH2CH2)2NCH2COOH)II[Nle(6-morpholino)][Nle(6-morpholino)][Phe(3-COOH)][NMeY]C[PEG4]-NH2; thioether N-15)
